Tests used:
[1] = excess molar enthalpy (molar enthalpy of mixing); xn = mol fraction of the nth substance listed; conditions: Liquid, Flow calorimetry
[2] = activity coefficient (dimensionless); of the first substance listed, at infinite dilution; xn = mol fraction of the nth substance listed; conditions: Liquid, Chromatography, x1 = 0

CCCC[N+]1(C)CCCC1.O=S(=O)([N-]S(=O)(=O)C(F)(F)F)C(F)(F)F + C=CCCCC
[1], 363.15 K, 2239 kPa
Conditions	excess molar enthalpy [kcal/mol]
x2 = 0.0587	0.0332
x2 = 0.1135	0.064
x2 = 0.1647	0.0835
x2 = 0.2579	0.104
x2 = 0.3781	0.11
x2 = 0.4477	0.0987
x2 = 0.5104	0.0864
x2 = 0.6185	0.0666
x2 = 0.7086	0.0533
x2 = 0.7849	0.0399
x2 = 0.8795	0.0203

CCCCCC[N+]1(C)CCCC1.O=S(=O)([N-]S(=O)(=O)C(F)(F)F)C(F)(F)F + CCCCC
[1], 363.15 K, 2135 kPa
Conditions	excess molar enthalpy [kcal/mol]
x2 = 0.0699	0.265
x2 = 0.1337	0.052
x2 = 0.1921	0.0702
x2 = 0.2952	0.096
x2 = 0.341	0.105
x2 = 0.4229	0.0964
x2 = 0.4942	0.0849
x2 = 0.5568	0.0741
x2 = 0.6615	0.056
x2 = 0.7457	0.0418
x2 = 0.8147	0.031
x2 = 0.8979	0.0187
x2 = 0.9635	0.00796

CCCCCC[N+]1(C)CCCC1.O=S(=O)([N-]S(=O)(=O)C(F)(F)F)C(F)(F)F + CCCCCC
[1], 363.15 K, 1720 kPa
Conditions	excess molar enthalpy [kcal/mol]
x2 = 0.067	0.0295
x2 = 0.1285	0.0574
x2 = 0.1852	0.0807
x2 = 0.2375	0.1
x2 = 0.2859	0.114
x2 = 0.3309	0.116
x2 = 0.483	0.0924
x2 = 0.6514	0.0629

C=CCCCCCCCC [1-decene] + CCCCCC[N+]1(C)CCCC1.O=S(=O)([N-]S(=O)(=O)C(F)(F)F)C(F)(F)F
[2]
Conditions	activity coefficient
303.16 K	18.8
313.15 K	18
323.15 K	17.3
333.16 K	16.9

C=CCCCCC [1-heptene] + CCCCCCCC[N+]1(C)CCCC1.O=S(=O)([N-]S(=O)(=O)C(F)(F)F)C(F)(F)F
[2]
Conditions	activity coefficient
313.11 K	4.37
323.14 K	4.22
333.17 K	4.1
343.21 K	4.02

C=CCCCCC [1-heptene] + CCCCCC[N+]1(C)CCCC1.O=S(=O)([N-]S(=O)(=O)C(F)(F)F)C(F)(F)F
[2]
Conditions	activity coefficient
303.14 K	6.5
313.16 K	6.31
323.37 K	6.11
333.16 K	6

C=CCCCCC [1-heptene] + CCCC[N+]1(C)CCCC1.O=S(=O)([N-]S(=O)(=O)C(F)(F)F)C(F)(F)F
[1], 413.15 K, 2239 kPa
Conditions	excess molar enthalpy [kcal/mol]
x1 = 0.0525	0.0322
x1 = 0.1022	0.0621
x1 = 0.1492	0.0898
x1 = 0.2762	0.113
x1 = 0.3509	0.1
x1 = 0.4189	0.0913
x1 = 0.481	0.0807
x1 = 0.5904	0.0622
x1 = 0.6838	0.0501
x1 = 0.7643	0.035
x1 = 0.8664	0.0204
x1 = 0.9511	0.00911

C=CCCC [1-pentene] + CCCCCCCC[N+]1(C)CCCC1.O=S(=O)([N-]S(=O)(=O)C(F)(F)F)C(F)(F)F
[2]
Conditions	activity coefficient
303.14 K	2.5
313.13 K	2.43
323.11 K	2.33
343.11 K	2.25
